Laboratory results published in patent publication US20090186915A1, “Compositions and methods for treatment of glioblastoma, gliosarcoma, NSCLC, and head and neck cancer” (Unibioscreen S. A., priority 2006, published 2009).

Legend:
DU-145 [1] = assay: Lysosomal membrane permeabilization (LMP), DU-145; assay type: cell-based, human; conditions: 72 hours, 10 μM
From the text: It is well known that lysosomes control cell death at several levels. In response to endogenous or exogenous stress (including chemotherapy), lysosomal membrane permeabilization (LMP) can occur, leading to the release of catabolic hydrolases that can mediate caspase-dependent apoptosis, caspase-independent apoptosis-like cell death or even necrosis following high levels of LMP.

GM-CFC = assay: HALO hematotoxicity assay, mouse GM-CFC; assay type: cell-based; conditions: 5 days culture, iATP
Protocol: Investigation of the hematotoxic potential of UNBS5162 was undertaken by HemoGenix (Colorado Springs, Colo.). The effects of UNBS5162 on stem and progenitor cell populations from murine and human bone marrow were assessed using HALO (Hematopoietic/Hematotoxicity Assay through Luminescence Output) technology. Stem and hematopoietic progenitor cell populations were isolated from mouse and human bone marrow samples, plated at a concentration of 1.0×10^4 cells/well and cultured for 5 and 7 days, respectively, in the presence of growth factors and increasing concentrations of UNBS5162 ranging from 0.5 nM to 50 μM. The proliferative or growth potential of cell populations was determined from intracellular ATP (iATP) concentrations and a luciferin/luciferase bioluminescence signal detection system. All samples were assayed in eight replicates. The results are presented as estimated inhibitory concentration (IC) values.

DU-145 [2] = assay: MTT colorimetric assay, DU-145 cells; assay type: cell-based; conditions: Homo sapiens, 72 h, 3 days of culturing, mean of six determinations, read-out: IC50 (μM) In Vitro Growth Inhibition
Protocol: (§1) The overall growth of human cancer cell lines was determined by means of the calorimetric MTT (3-[4,5-dimethylthiazol-2-yl]-diphenyl tetrazolium bromide; Sigma) assay, as detailed previously.

PC-3 = assay: Autophagy: acidic vesicular organelles, acridine orange flow cytometry, PC-3; assay type: cell-based, human; conditions: red fluorescence, up to 10 μM
Protocol: (§2) The cytoplasm and nucleus fluoresce green in acridine orange-stained cells, and the acidic compartments fluoresce red. The intensity of the red fluorescence is proportional to the degree of acidity and the volume of acidic vesicular organelles, including autophagic vacuoles. To quantify the development of acidic vesicular organelles, the cells were stained with acridine orange for 15 minutes and removed from the plate with trypsinization. Cells were then analyzed by flow cytometry. Each sample was evaluated in triplicate.

[3] = UNBS5162 mouse pharmacokinetics; assay type: in vivo
Protocol: Mouse in-life phase. Female B6D2F1 mouse (Charles River, L'Arbresle, France) were administered a single i.v. bolus injection of 20 mg/kg or a single oral dose of 80-mg/kg UNBS5162 as a solution (formulated in 0.5% lactic acid). Dosing volume was 10 ml/kg body weight. The i.v. injection was performed through the tail vein, and the oral dose was given by gavage. Blood sampling for pharmacokinetic analysis was performed by cardiac puncture after Nembutal intraperitoneal injection. The blood was collected over Li-heparin at 0.05, 0.08, 0.17, 0.25, 0.33, 0.5, 0.75, 1, 2, 4, 7, 16, and 24 hours after dose. Five animals were used per time point. Blood was kept on ice for a maximum of 2 hours before isolating plasma by centrifugation, and the resulting plasma was stored at approximately −70° C. until analysis. The samples were subsequently analyzed for UNBS5162 by liquid chromatography-mass spectrometry.
Plasma concentrations of UNBS5162 were determined using liquid chromatography-mass spectrometry. […] Briefly, solid phase extraction was performed using SPE Oasis HLB columns of 1 ml (Waters). UNBS5162 and the internal standard UNBS5181 were eluted using methanol, evaporated to dryness and reconstituted in starting solvent, a mixture (90:10 v/v) of 0.05% aqueous formic acid (mobile phase A) and 0.05% formic acid in acetonitrile (mobile phase B). Liquid chromatographic separation was effected using an Atlantis T3 column (50×2.1 mm; 3 μm), with an isocratic method with a 90:10 v/v ratio of mobile phases A/B at a flow rate of 250 μl/min for 12.5 minutes, followed by 2 minutes of 100% mobile phase B and then 4.5 minutes reconditioning with the starting solvent at a flow rate of 250 μl/min. Compound detection and quantification were performed by positive ion electrospray ionization on a QToF Ultima mass spectrometer (Micromass, Manchester, UK).

[4] = Body weight of MXT-HI tumor-bearing mice; assay type: in vivo, female B6D2F1 mice; conditions: for Mean body weight: UNBS5162 i.v. (5i × 3w) 10 mg/kg, alone or with 10 gray
[5] = tested on: orthotopic Hs683 xenograft; assay: Orthotopic Hs683 xenograft nude mice model, survival; assay type: in vivo; conditions: Temodal p.o. 40 mg/kg three times a week for three weeks followed by UNBS5162 i.v. 10 mg/kg once a week for three weeks
Protocol: In order to evaluate UNBS5162-mediated in vivo anti-tumor effect in glioma models, an orthotopis Hs683 model was used that was previously evidenced as expressing pro-angiogenic chemokines at the most high level. […] In line with this, an experiment combining Temodal to UNBS5162 was performed.
Thus, combining pro-autophagic therapy with an inhibitor of pro-angiogenic chemokines might represent a new manner to treat glioblastoma, at least some types that express high levels of pro-angiogenic chemokines.

DU-145 [6] = assay: Autophagy: acidic vesicular organelles, acridine orange flow cytometry, DU-145; assay type: cell-based, human; conditions: red fluorescence, up to 10 μM
Protocol: as §2

A549 = assay: MTT colorimetric assay, A549 cells; assay type: cell-based; conditions: Homo sapiens, 72 h, 3 days of culturing, mean of six determinations, read-out: IC50 (μM) In Vitro Growth Inhibition
Protocol: as §1

[7] = B6D2F1, mouse, plasma, iv, female mice, i.v. 20 mg/kg single
[8] = B6D2F1, mouse, plasma, po, female mice, p.o. 80 mg/kg single

Q: With `CN(C)CCN1C(=O)c2cccc3cc(NC(N)=O)cc(c23)C1=O` [UNBS5162, N-{2-[2-(dimethylamino)ethyl]-1,3-dioxo-2,3-dihydro-1H-benzo[de]isoquinolin-5-yl}urea] as the compound, how does the “lysosomal membrane permeabilization (LMP)” value (DU-145 [1]) read?
A: The value was “a marked drug-induced LMP process appeared”.

Q: And the IC50 (GM-CFC; 120 h)?
A: Its IC50 is 7.04 µM.

Q: And the IC90 (GM-CFC; 120 h)?
A: The IC90 was 12 µM.

Q: And the IC75 (GM-CFC)?
A: Its IC75 is 9.09 µM.

Q: What about the IC50 (DU-145 [2]) of the same compound?
A: Its IC50 is 16 µM.

Q: What about the “pro-autophagic effects (acidic vesicular organelles)” value (PC-3) of the same compound?
A: The value was “had a proautophagic effect”.

Q: What about the “pro-autophagic effects (acidic vesicular organelles)” value (PC-3; listed as example 2) of the same compound?
A: The value was “pro-autophagic effects”.

Q: And the AUC(0-inf) [3, 7]?
A: Its AUC(0-inf) is 5770 ng·h/mL.

Q: And the Cmax [3, 7]?
A: The Cmax was 12000 ng/mL.

Q: And the Vd [3, 7]?
A: The Vd was 18.9 L/kg.

Q: And the half-life [3, 7]?
A: Its half-life is 3.8 h.

Q: And the bioavailability ([3]; B6D2F1, mouse, plasma, oral, female mice, p.o. 80 mg/kg versus i.v. 20 mg/kg, read-out: F (absolute bioavailability))?
A: The bioavailability was 3.84%.

Q: What about the AUC(0-inf) [3, 8] of the same compound?
A: Its AUC(0-inf) is 886 ng·h/mL.

Q: And the Cmax [3, 8]?
A: The Cmax was 510 ng/mL.

Q: What about the Tmax [3, 8] of the same compound?
A: Its Tmax is 0.3 h.

Q: What about the Cl ([3]; female mice, i.v. 20 mg/kg single) of the same compound?
A: Its Cl is 3.47 L/h per kilogram.

Q: What about the “time for which 1-μM plasma levels are sustained” value ([3]; mice, post-i.v. 20 mg/kg) of the same compound?
A: Its value is no more than 2 h.

Q: What about the “time for which plasma levels of 10 μM are maintained” value ([3]; mice, post-i.v. 20 mg/kg) of the same compound?
A: The value was “approximately 30 minutes”.

Q: What about the Mean body weight ([4]; Day 14) of the same compound?
A: The Mean body weight was 22.13 g.

Q: What about the Mean body weight ([4]; Day 16) of the same compound?
A: Its Mean body weight is 23.39 g.

Q: What about the Mean body weight ([4]; Day 19) of the same compound?
A: The Mean body weight was 25.72 g.

Q: And the Mean body weight ([4]; Day 21)?
A: Its Mean body weight is 24.35 g.

Q: And the Mean body weight ([4]; Day 23)?
A: The Mean body weight was 25.46 g.

Q: And the Mean body weight ([4]; Day 26)?
A: The Mean body weight was 28.52 g.

Q: What about the “changes in body weights compared to control” value ([4]; UNBS5162 10 mg/kg i.v. 5i×3w, alone or with 1×10 gray) of the same compound?
A: The value was “No significant changes in body weights”.

Q: And the “survival period of tumor bearing mice” value [5]?
A: The value was “significantly prolonged the survival period of tumor bearing mice”.

Q: And the “pro-autophagic effects (acidic vesicular organelles)” value (DU-145 [6])?
A: Its value is “had a proautophagic effect”.

Q: What about the “pro-autophagic effects (acidic vesicular organelles)” value (DU-145 [6]; listed as example 2) of the same compound?
A: The value was “pro-autophagic effects”.

Q: What about the IC50 (A549) of the same compound?
A: The IC50 was 21.2 µM.
